Patent US20160318987A1 (MEDIMMUNE LIMITED, priority 2013, published 2016)

Columns and labels:
Format in all cases: cell-based
Details in all cases: n = 2
hGluc-R = biological target: T1, hGluc-R (Homo sapiens, UniProt P47871); assay: cAMP functional assay, cells expressing human glucagon receptor (primary assay)
T1 construct: expressed in transfected cells
Procedure: The biological activities/receptor potencies of the synthetic GLP-1 peptides described herein are suitably tested for biological activity, e.g., stimulation of one or more cellular receptor responses. Stable cell lines expressing human, mouse, rat, or dog GLP-1 receptor (GLP-1R), glucagon receptor (GCGR) or glucose-dependent insulinotropic peptide (gastric inhibitory polypeptide) receptor (GIPR) are generated in HEK293 cells or CHO cells by standard methods.
cAMP assays were performed using “assay buffer”: Assay Buffer: 0.1% BSA (Sigma #A3059) in HBSS (Sigma #H8264) with 25 mM HEPES, pH 7.4 and containing 0.5 mM IBMX (Sigma #17018).
Low protein binding 384-well plates (Greiner #781280) are used to perform eleven 1 in 5 serial dilutions of test samples which are made in assay buffer. All sample dilutions are made in duplicate.
A frozen cryo-vial of cells expressing the receptor of interest is thawed rapidly in a water-bath, transferred to pre-warmed assay buffer and spun at 240× g for 5 minutes. Cells are re-suspended in assay buffer at a batch-dependent optimized concentration (e.g. hGCGR cells at 2×10^5 cells/ml, hGLP-1R and hGIPR cells at 1×10^5 cells /ml).
From the dilution plate, a 5 μL replica is stamped onto a black shallow-well u-bottom 384-well plate (Corning #3676). To this, 5 μL cell suspension is added and the plates incubated at room temperature for 30 minutes.
cAMP levels are measured using a commercially available cAMP dynamic 2 HTRF kit (Cisbio, Cat #62AM4PEJ), following the two step protocol as per manufacturer's recommendations. In brief; anti-cAMP cryptate (donor fluorophore) and cAMP-d2 (acceptor fluorophore) are made up separately by diluting each 1/20 in conjugate & lysis buffer provided in the kit. 5 μL anti-cAMP cryptate is added to all wells of the assay plate, and 5 μL cAMP-d2 is added to all wells except non-specific binding (NSB) wells, to which conjugate and lysis buffer are added. Plates are incubated at room temperature for one hour and then read on an Envision (Perkin Elmer) using excitation wavelength of 320 nm and emission wavelengths of 620 nm & 665 nm. EC50 values of the synthetic peptides determined in cAMP assays are then determined.

hGLP-1R = biological target: T2, hGLP-1R (Homo sapiens, UniProt P43220); assay: cAMP functional assay, cells expressing human GLP-1 receptor (primary assay)
T2 construct: expressed in transfected cells
T2 sequence (P43220 24-463): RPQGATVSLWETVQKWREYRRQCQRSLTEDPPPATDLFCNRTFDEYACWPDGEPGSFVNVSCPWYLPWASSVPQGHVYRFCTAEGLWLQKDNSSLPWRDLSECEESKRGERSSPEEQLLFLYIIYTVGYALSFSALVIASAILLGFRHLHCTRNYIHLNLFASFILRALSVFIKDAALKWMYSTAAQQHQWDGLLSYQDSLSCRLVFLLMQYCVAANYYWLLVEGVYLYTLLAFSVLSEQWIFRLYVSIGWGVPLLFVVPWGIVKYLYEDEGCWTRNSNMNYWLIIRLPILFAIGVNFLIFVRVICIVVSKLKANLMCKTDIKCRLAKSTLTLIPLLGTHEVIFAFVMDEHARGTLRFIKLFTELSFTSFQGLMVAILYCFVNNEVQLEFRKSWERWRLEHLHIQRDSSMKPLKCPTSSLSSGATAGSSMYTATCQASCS

hGIP-R = biological target: T3, hGIP-R (Homo sapiens, UniProt P48546); assay: cAMP functional assay, cells expressing human GIP receptor (primary assay)
T3 construct: expressed in transfected cells
T3 sequence (P48546 22-466): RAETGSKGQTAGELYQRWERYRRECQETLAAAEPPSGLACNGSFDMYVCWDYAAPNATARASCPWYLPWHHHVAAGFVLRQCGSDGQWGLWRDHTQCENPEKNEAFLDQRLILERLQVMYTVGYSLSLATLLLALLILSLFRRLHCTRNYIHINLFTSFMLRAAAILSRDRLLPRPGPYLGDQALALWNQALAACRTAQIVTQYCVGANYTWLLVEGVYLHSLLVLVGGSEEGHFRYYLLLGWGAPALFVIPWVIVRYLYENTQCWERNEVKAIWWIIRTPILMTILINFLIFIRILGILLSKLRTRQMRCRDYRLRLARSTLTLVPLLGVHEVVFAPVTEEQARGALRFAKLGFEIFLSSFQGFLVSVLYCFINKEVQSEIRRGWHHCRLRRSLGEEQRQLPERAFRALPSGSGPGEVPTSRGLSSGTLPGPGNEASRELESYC

T1 sequence (P47871 26-477): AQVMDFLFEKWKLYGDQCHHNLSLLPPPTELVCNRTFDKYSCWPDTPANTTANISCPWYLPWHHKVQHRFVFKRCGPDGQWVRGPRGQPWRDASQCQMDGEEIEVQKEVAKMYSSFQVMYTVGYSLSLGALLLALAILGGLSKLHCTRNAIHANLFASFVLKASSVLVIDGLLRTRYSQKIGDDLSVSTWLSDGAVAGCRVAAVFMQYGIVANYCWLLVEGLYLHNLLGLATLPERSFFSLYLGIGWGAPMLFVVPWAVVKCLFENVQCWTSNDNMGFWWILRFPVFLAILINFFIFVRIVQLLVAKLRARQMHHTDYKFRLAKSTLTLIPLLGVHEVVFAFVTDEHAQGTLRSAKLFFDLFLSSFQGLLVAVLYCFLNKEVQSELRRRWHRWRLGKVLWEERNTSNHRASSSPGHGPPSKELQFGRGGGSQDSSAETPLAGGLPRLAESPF

Structure (SMILES)	EC50 (hGluc-R)	EC50 (hGLP-1R)	EC50 (hGIP-R)
CC[C@H](C)[C@H](NC(=O)[C@H](Cc1ccccc1)NC(=O)[C@H](CCC(=O)O)NC(=O)[C@H](CCCCN)NC(=O)[C@H](C)NC(=O)[C@H](C)NC(=O)[C@H](CCC(N)=O)NC(=O)CNC(=O)[C@H](CCC(=O)O)NC(=O)[C@H](CC(C)C)NC(=O)[C@H](Cc1ccc(O)cc1)NC(=O)[C@H](CO)NC(=O)[C@H](CO)NC(=O)[C@@H](NC(=O)[C@H](CC(=O)O)NC(=O)[C@H](CO)NC(=O)[C@@H](NC(=O)[C@H](Cc1ccccc1)NC(=O)[C@@H](NC(=O)CNC(=O)[C@H](CCC(=O)O)NC(=O)C(C)(C)NC(=O)[C@@H](N)Cc1c[nH]cn1)[C@@H](C)O)[C@@H](C)O)C(C)C)C(=O)N[C@@H](C)C(=O)N[C@@](C)(Cc1ccccc1)C(=O)N[C@@H](CC(C)C)C(=O)N[C@H](C(=O)N[C@@H](CCCCN)C(=O)NCC(=O)N[C@@H](CCCNC(=N)N)C(N)=O)C(C)C [SEQ ID NO: 14, H-(Aib)^2-EGT^5 FTSDV^10 SSYLE^15 GQAAK^20 EFIA-(α-MeF)^25 LVKGR^30]	170 nM	0.0196 nM	170 nM
CC[C@H](C)[C@H](NC(=O)[C@H](Cc1ccccc1)NC(=O)[C@H](CCC(=O)O)NC(=O)[C@H](CCCCN)NC(=O)[C@H](C)NC(=O)[C@H](C)NC(=O)[C@H](CCC(N)=O)NC(=O)CNC(=O)[C@H](CCC(=O)O)NC(=O)[C@H](CC(C)C)NC(=O)[C@H](Cc1ccc(O)cc1)NC(=O)[C@H](CO)NC(=O)[C@H](CO)NC(=O)[C@@H](NC(=O)[C@H](CC(=O)O)NC(=O)[C@H](CO)NC(=O)[C@@H](NC(=O)[C@H](Cc1ccccc1)NC(=O)[C@@H](NC(=O)CNC(=O)[C@H](CCC(=O)O)NC(=O)C(C)(C)NC(=O)[C@@H](N)Cc1c[nH]cn1)[C@@H](C)O)[C@@H](C)O)C(C)C)C(=O)N[C@@H](C)C(=O)NC(C)(C)C(=O)N[C@@H](CC(C)C)C(=O)N[C@H](C(=O)N[C@@H](CCCCN)C(=O)NCC(=O)N[C@@H](CCCNC(=N)N)C(N)=O)C(C)C [SEQ ID NO: 15, H-(Aib)^2-EGT^5 FTSDV^10 SSYLE^15 GQAAK^20 EFIA-(Aib)^25 LVKGR^30]	177 nM	0.0465 nM	177 nM
CC[C@H](C)[C@H](NC(=O)[C@H](Cc1ccccc1)NC(=O)[C@H](CCC(=O)O)NC(=O)[C@](C)(CCCCN)NC(=O)[C@H](C)NC(=O)[C@H](C)NC(=O)[C@H](CCC(N)=O)NC(=O)CNC(=O)[C@H](CCC(=O)O)NC(=O)[C@H](CC(C)C)NC(=O)[C@H](Cc1ccc(O)cc1)NC(=O)[C@H](CO)NC(=O)[C@H](CO)NC(=O)[C@@H](NC(=O)[C@H](CC(=O)O)NC(=O)[C@H](CO)NC(=O)[C@@H](NC(=O)[C@H](Cc1ccccc1)NC(=O)[C@@H](NC(=O)CNC(=O)[C@H](CCC(=O)O)NC(=O)C(C)(C)NC(=O)[C@@H](N)Cc1c[nH]cn1)[C@@H](C)O)[C@@H](C)O)C(C)C)C(=O)N[C@@H](C)C(=O)N[C@@H](Cc1c[nH]c2ccccc12)C(=O)N[C@@H](CC(C)C)C(=O)N[C@H](C(=O)N[C@@H](CCCCN)C(=O)NCC(=O)N[C@@H](CCCNC(=N)N)C(N)=O)C(C)C [SEQ ID NO: 20, H-(Aib)^2-EGT^5 FTSDV^10 SSYLE^15 GQAA-(α-MeK)^20 EFIAW^25 LVKGR^30]	110 nM	0.0167 nM	110 nM
CC[C@H](C)[C@H](NC(=O)[C@H](Cc1ccccc1)NC(=O)[C@H](CCC(=O)O)NC(=O)C(C)(C)NC(=O)[C@H](C)NC(=O)[C@H](C)NC(=O)[C@H](CCC(N)=O)NC(=O)CNC(=O)[C@H](CCC(=O)O)NC(=O)[C@H](CC(C)C)NC(=O)[C@H](Cc1ccc(O)cc1)NC(=O)[C@H](CO)NC(=O)[C@H](CO)NC(=O)[C@@H](NC(=O)[C@H](CC(=O)O)NC(=O)[C@H](CO)NC(=O)[C@@H](NC(=O)[C@H](Cc1ccccc1)NC(=O)[C@@H](NC(=O)CNC(=O)[C@H](CCC(=O)O)NC(=O)C(C)(C)NC(=O)[C@@H](N)Cc1c[nH]cn1)[C@@H](C)O)[C@@H](C)O)C(C)C)C(=O)N[C@@H](C)C(=O)N[C@@H](Cc1c[nH]c2ccccc12)C(=O)N[C@@H](CC(C)C)C(=O)N[C@H](C(=O)N[C@@H](CCCCN)C(=O)NCC(=O)N[C@@H](CCCNC(=N)N)C(N)=O)C(C)C [SEQ ID NO: 21, H-(Aib)^2-EGT^5 FTSDV^10 SSYLE^15 GQAA-(Aib)^26 EFIAW^25 LVKGR^30]	76.5 nM	0.02 nM	76.5 nM
CC[C@H](C)[C@H](NC(=O)[C@H](Cc1ccccc1)NC(=O)[C@H](CCC(=O)O)NC(=O)[C@H](CCCCN)NC(=O)[C@H](C)NC(=O)[C@H](C)NC(=O)[C@H](CCC(N)=O)NC(=O)CNC(=O)[C@H](CCC(=O)O)NC(=O)[C@H](CC(C)C)NC(=O)[C@H](Cc1ccc(O)cc1)NC(=O)[C@H](CO)NC(=O)[C@H](CO)NC(=O)[C@@H](NC(=O)[C@H](CC(=O)O)NC(=O)[C@H](CO)NC(=O)[C@@H](NC(=O)[C@H](Cc1ccccc1)NC(=O)[C@@H](NC(=O)CNC(=O)[C@H](CCC(=O)O)NC(=O)C(C)(C)NC(=O)[C@@H](N)Cc1c[nH]cn1)[C@@H](C)O)[C@@H](C)O)C(C)C)C(=O)N[C@@H](C)C(=O)N[C@@H](Cc1c[nH]c2ccccc12)C(=O)N[C@@H](CC(C)C)C(=O)N[C@H](C(=O)N[C@@](C)(CCCCN)C(=O)NCC(=O)N[C@@H](CCCNC(=N)N)C(N)=O)C(C)C [SEQ ID NO: 22, H-(Aib)^2-EGT^5 FTSDV^10 SSYLE^15 GQAAK^20 EFIAW^25 LV-(α-MeK)^28-GR^30]	91.4 nM	0.019 nM	91.4 nM
CC[C@H](C)[C@H](NC(=O)[C@H](Cc1ccccc1)NC(=O)[C@H](CCC(=O)O)NC(=O)[C@H](CCCCN)NC(=O)[C@H](C)NC(=O)[C@H](C)NC(=O)[C@H](CCC(N)=O)NC(=O)CNC(=O)[C@H](CCC(=O)O)NC(=O)[C@H](CC(C)C)NC(=O)[C@H](Cc1ccc(O)cc1)NC(=O)[C@H](CO)NC(=O)[C@H](CO)NC(=O)[C@@H](NC(=O)[C@H](CC(=O)O)NC(=O)[C@H](CO)NC(=O)[C@@H](NC(=O)[C@H](Cc1ccccc1)NC(=O)[C@@H](NC(=O)CNC(=O)[C@H](CCC(=O)O)NC(=O)C(C)(C)NC(=O)[C@@H](N)Cc1c[nH]cn1)[C@@H](C)O)[C@@H](C)O)C(C)C)C(=O)N[C@@H](C)C(=O)N[C@@H](Cc1c[nH]c2ccccc12)C(=O)N[C@@H](CC(C)C)C(=O)N[C@H](C(=O)NC(C)(C)C(=O)NCC(=O)N[C@@H](CCCNC(=N)N)C(N)=O)C(C)C [SEQ ID NO: 23, H-(Aib)^2-EGT^5 FTSDV^10 SSYLE^15 GQAAK^20 EFIAW^25 LV-(Aib)^28-GR^30]	103 nM	0.0279 nM	105 nM
CC[C@H](C)[C@H](NC(=O)[C@H](Cc1ccccc1)NC(=O)[C@H](CCC(=O)O)NC(=O)[C@H](CCCCN)NC(=O)[C@H](C)NC(=O)[C@H](C)NC(=O)[C@H](CCC(N)=O)NC(=O)CNC(=O)[C@H](CCC(=O)O)NC(=O)[C@H](CC(C)C)NC(=O)[C@H](Cc1ccc(O)cc1)NC(=O)[C@H](CO)NC(=O)[C@H](CO)NC(=O)[C@@H](NC(=O)[C@H](CC(=O)O)NC(=O)[C@H](CO)NC(=O)[C@@H](NC(=O)[C@H](Cc1ccccc1)NC(=O)[C@@H](NC(=O)CNC(=O)[C@H](CCC(=O)O)NC(=O)C(C)(C)NC(=O)[C@@H](N)Cc1c[nH]cn1)[C@@H](C)O)[C@@H](C)O)C(C)C)C(=O)N[C@@H](C)C(=O)N[C@@H](Cc1c[nH]c2ccccc12)C(=O)N[C@@H](CC(C)C)C(=O)N[C@H](C(=O)N[C@@H](CCCCN)C(=O)NCC(=O)N[C@@](C)(CCCNC(=N)N)C(N)=O)C(C)C [SEQ ID NO: 24, H-(Aib)^2-EGT^5 FTSDV^10 SSYLE^15 GQAAK^20 EFIAW^25 LVKG-(α-MeR)^30]	111 nM	0.021 nM	111 nM
